# According to patent US10174037B2, “Dihydropyrazolopyrimidinone compounds as PDE2 inhibitors” (Merck Sharp & Dohme Corp., priority 2015, dated 2019):
# Where two headings read alike, the source gives them in different places.
# How the values were obtained:
# [1] = molecular target: Rhesus PDE2A3 (Macaca mulatta, UniProt B3VTJ2); test: PDE2 fluorescence polarization (IMAP FP) assay, rhesus PDE2A3; assay type: biochemical, rhesus macaque
# [2] = molecular target: human PDE2A1 (Homo sapiens (Human), UniProt O00408); test: PDE selectivity IMAP FP assay, human PDE2A1; assay type: biochemical; details: Human PDE2
# human PDE2A1, sequence (O00408 other isoform, or with tags, fused parts or gaps): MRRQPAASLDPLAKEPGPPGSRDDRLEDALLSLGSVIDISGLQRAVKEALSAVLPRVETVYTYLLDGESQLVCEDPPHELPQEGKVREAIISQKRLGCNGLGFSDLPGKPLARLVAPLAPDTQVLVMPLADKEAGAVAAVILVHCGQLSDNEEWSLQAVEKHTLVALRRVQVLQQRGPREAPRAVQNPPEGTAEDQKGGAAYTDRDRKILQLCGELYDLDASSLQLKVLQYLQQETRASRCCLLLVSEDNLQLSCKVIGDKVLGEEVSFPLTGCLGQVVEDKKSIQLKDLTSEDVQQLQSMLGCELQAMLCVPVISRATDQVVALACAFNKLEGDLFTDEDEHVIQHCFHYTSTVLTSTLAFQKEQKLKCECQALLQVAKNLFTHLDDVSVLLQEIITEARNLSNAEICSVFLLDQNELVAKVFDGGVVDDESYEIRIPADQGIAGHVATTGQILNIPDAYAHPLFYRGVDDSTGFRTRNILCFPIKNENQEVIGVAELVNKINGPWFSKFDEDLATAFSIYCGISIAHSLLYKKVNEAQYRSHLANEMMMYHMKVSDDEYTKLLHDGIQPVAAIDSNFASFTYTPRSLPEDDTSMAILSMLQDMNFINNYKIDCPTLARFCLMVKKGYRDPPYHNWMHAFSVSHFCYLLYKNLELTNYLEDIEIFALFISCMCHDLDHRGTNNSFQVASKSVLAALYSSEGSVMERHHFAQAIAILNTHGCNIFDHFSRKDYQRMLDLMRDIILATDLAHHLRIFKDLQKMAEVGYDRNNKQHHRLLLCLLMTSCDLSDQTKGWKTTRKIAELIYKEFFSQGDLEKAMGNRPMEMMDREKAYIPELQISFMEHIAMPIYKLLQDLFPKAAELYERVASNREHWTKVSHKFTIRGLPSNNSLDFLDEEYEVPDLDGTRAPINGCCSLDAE
# Method in brief: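 Compound titrations run against PDE2 in Tris HCl pH 7.2 buffer with MgCl2 and DTT for 60 min at room temperature, using 50 nM FAM-cAMP plus 1000 nM cGMP and enzyme giving 20% conversion.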
# [3] = Lab B, read-out: Rhesus PDE2 Ki (nM) Lab B
# [4] = Lab B, read-out: Human PDE2 Ki (nM) Lab B
# [5] = Lab A, read-out: Rhesus PDE2 Ki (nM) Lab A
# [6] = Lab A, read-out: Human PDE2 Ki (nM) Lab A
# Rhesus PDE2A3, sequence (B3VTJ2 1-941): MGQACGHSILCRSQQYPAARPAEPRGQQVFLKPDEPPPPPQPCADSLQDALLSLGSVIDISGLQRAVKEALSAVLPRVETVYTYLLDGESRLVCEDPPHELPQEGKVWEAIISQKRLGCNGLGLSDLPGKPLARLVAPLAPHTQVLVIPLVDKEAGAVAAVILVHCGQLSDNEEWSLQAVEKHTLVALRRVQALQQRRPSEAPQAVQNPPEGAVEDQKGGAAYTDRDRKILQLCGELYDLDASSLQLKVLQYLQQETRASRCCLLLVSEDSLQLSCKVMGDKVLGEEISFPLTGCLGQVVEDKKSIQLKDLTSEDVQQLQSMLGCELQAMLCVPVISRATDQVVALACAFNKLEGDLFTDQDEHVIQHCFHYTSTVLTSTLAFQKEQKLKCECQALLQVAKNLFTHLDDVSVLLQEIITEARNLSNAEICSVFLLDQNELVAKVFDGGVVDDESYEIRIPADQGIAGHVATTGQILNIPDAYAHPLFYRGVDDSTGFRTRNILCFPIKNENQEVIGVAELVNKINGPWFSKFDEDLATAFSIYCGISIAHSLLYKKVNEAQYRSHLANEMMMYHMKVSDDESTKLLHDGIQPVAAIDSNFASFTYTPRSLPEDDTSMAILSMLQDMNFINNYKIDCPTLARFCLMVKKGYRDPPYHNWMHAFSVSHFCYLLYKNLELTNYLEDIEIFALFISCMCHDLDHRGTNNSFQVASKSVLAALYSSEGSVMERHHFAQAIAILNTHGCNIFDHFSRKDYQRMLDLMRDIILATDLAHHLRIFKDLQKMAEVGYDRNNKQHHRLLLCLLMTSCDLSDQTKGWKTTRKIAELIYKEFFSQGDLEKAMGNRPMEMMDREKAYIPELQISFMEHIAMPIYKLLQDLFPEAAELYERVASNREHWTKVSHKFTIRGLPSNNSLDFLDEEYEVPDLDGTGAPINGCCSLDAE
SMILES,"Ki [1, 3]","Ki [2, 4]","Ki [1, 5]","Ki [2, 6]"
"CCC(c1ccc(C(C)(F)F)c(F)c1)n1nc(CF)c2c(=O)[nH]c(N(C)C)nc21 (single isomer, unassigned) [Example 216, (R)- or (S)-1-(1-(4-(1,1-Difluoroethyl)-3-fluorophenyl)propyl)-6-(dimethylamino)-3-(fluoromethyl)-1H-pyrazolo[3,4-d]pyrimidin-4(5H)-one]",1.4 nM,1.1 nM,–,–
"O=c1[nH]c(O)nc2c1c(CF)nn2C1(c2ccc(C(F)(F)F)cc2)CCC1 [Example 46, 3-(Fluoromethyl)-6-hydroxy-1-(1-(4-(trifluoromethyl)phenyl)cyclobutyl)-1H-pyrazolo[3,4-d]pyrimidin-4(5H)-one]",11 nM,9.2 nM,–,–
"CN(C)c1nc2c(c(CF)nn2C(c2ccc(C(F)(F)F)cc2F)C2CC2)c(=O)[nH]1 (single isomer, unassigned) [Example 203, (S)- or (R)-1-(Cyclopropyl(2-fluoro-4-(trifluoromethyl)phenyl)methyl)-6-(dimethylamino)-3-(fluoromethyl)-1H-pyrazolo[3,4-d]pyrimidin-4(5H)-one]",0.74 nM,0.61 nM,–,–
"CC(c1ccc(C(C)(C)C)cc1)n1nc(CF)c2c(=O)[nH]c(N(C)C)nc21 (single isomer, unassigned) [Example 170, (R)- or (S)-1-(1-(4-tert-Butylphenyl(ethyl)-6-(dimethylamino)-3-(fluoromethyl)-1H-pyrazolo[3,4-d]pyrimidin-4(5H)-one]",11 nM,7.6 nM,–,–
"CC(C)C(c1ccc(C(F)(F)F)cc1)n1nc(CC(F)(F)F)c2c(=O)[nH]c(O)nc21 (single isomer, unassigned) [Example 240, (R)- or (S)-6-Hxdroxy-1-(2-methyl-1-(4-(trifluoromethyl)phenyl)propyl)-3-(2,2,2-trifluoroethyl)-1H-pyrazolo[3,4-d]pyrimidin-4(5H)-one]",11 nM,8 nM,–,–
"C[C@H](c1ccc(C(F)(F)F)c(F)c1)n1nc(CF)c2c(=O)[nH]c(O)nc21 (mixture of isomers) [Example 34, (R)- and (S)-1-(1-(3-Fluoro-4-(trifluoromethyl)phenyl)ethyl)-3-(fluoromethyl)-6-hydroxy-H-pyrazolo[3,4-d]pyrimidin-4(5H)-one]",2.4 nM,2.1 nM,–,–
"CC(c1ccc(OC(F)(F)F)c(F)c1)n1nc(CF)c2c(=O)[nH]c(O)nc21 (centres unmarked) [Example 38, 1-(1-(3-Fluoro-4-(trifluoromethoxy)phenyl)ethyl)-3-(fluoromethyl)-6-hydroxy-1H-pyrazolo[3,4-d]pyrimidin-4(5H)-one]",8.3 nM,8.5 nM,7.2 nM,2.8 nM
"Cc1nn(C(C)c2ccc(C(F)(F)F)cc2)c2nc(N3CCCC3)[nH]c(=O)c12 (centres unmarked) [Example 268, 3-Methyl-6-pyrrolidin-1-yl-1-{1-[4-(trifluoromethyl)phenyl]ethyl}-1,5-dihydro-4H-pyrazolo[3,4-d]pyrimidin-4-one]",–,–,8 nM,5.6 nM
"C[C@@H](c1ccc(C(F)(F)F)cc1)n1nc(CO)c2c(=O)[nH]c(N3CC(F)C3)nc21 [Example 161, 6-(3-Fluoroazetidin-1-yl)-3-(hydroxymethyl)-1-{(1S)-1-[4-(trifluoromethyl)phenyl]ethyl}-1,5-dihydro-4H-pyrazolo[3,4-d]pyrimidin-4-one]",1.9 nM,1.6 nM,–,–
"CC(c1ccc(C(F)(F)F)c(F)c1)n1nc(CO)c2c(=O)[nH]c(O)nc21 (single isomer, unassigned) [Example 1]",13 nM,11 nM,–,–
"CC(C)C(c1ccc(C(F)(F)F)c(F)c1)n1nc(CC(F)(F)F)c2c(=O)[nH]c(O)nc21 (single isomer, unassigned) [Example 258]",10 nM,9.7 nM,–,–
"CC(C)C(c1ccc(C(C)(F)F)c(F)c1)n1nc(CO)c2c(=O)[nH]c(N(C)C)nc21 (single isomer, unassigned) [Example 116, (R)- or (S)-1-(1-(4-(1,1-Difluoroethyl)-3-fluorophenyl)-2-methylpropyl)-6-(dimethylamino)-3-(hydroxymethyl)-1H-pyrazolo[3,4-d]pyrimidin-4(5H)-one]",0.16 nM,0.13 nM,–,–
"O=c1[nH]c(O)nc2c1c(CF)nn2[C@H](c1ccc(C(F)(F)F)c(F)c1)C1CC1 [Example 48, (S)-1-(Cyclopropyl(3-fluoro-4-(lrifluoromethyl)phenyl)methyl)-3-(fluoromethyl)-6-hydroxy-1H-pyrazolo[3,4-d]pyrimidin-4(5H)-one]",6.2 nM,5.6 nM,–,–
"C[C@@H](c1ccc(S(F)(F)(F)(F)F)cc1)n1nc(CF)c2c(=O)[nH]c(O)nc21 [Example 50, (S)-3-(Fluoromethyl)-6-hydroxy-1-(1-(4-(pentafluorolhio)phenyl)ethyl)-1H-pyrazolo[3,4-d]pyrimidin-4(5H)-one]",6.8 nM,7 nM,–,–
"C[C@@H](c1ccc(C(C)(C)C)cc1)n1nc(CF)c2c(=O)[nH]c(O)nc21 [Example 47, (S)-1-(1-(4-tert-Butylphenyl)ethyl)-3-(fluoromethyl)-6-hydroxy-1H-pyrazolo[3,4-d]pyrimidin-4(5H)-one]",6.9 nM,5.1 nM,–,–

# More lines, in order of falling Ki [1, 3], values ahead:
"Ki [1, 3]","Ki [2, 4]","Ki [1, 5]","Ki [2, 6]",SMILES
0.71 nM,0.79 nM,–,–,"CC(C)C(c1ccc(C(F)F)c(F)c1)n1nc(CO)c2c(=O)[nH]c(N(C)C)nc21 (single isomer, unassigned) [Example 114]"
0.25 nM,0.29 nM,–,–,"CC(c1ccc(C(F)(F)F)cc1F)n1nc(CO)c2c(=O)[nH]c(N(C)C)nc21 (single isomer, unassigned) [Example 81, (S)- or (R)-6-(Dimethylamino)-1-(1-(2-fluoro-4-(trifluorornethyl)phenyl)ethyl)-3-(hyrdroxymethyl)-1H-pyrazolo[3,4-d]pyrimidin-4(5H)-one]"
0.24 nM,0.19 nM,–,–,"CC(C)C(c1ccc(OC(F)F)cc1)n1nc(CF)c2c(=O)[nH]c(N(C)C)nc21 (single isomer, unassigned) [Example 184, (R)- or (S)-1-(1-(4-(Difluoromethoxy)phenyl)-2-methylpropyl)-6-(dimethylamino)-3-(fluoromethyl)-1H-pyrazolo[3,4-d]pyrimidin-4(5H)-one]"
0.14 nM,0.077 nM,–,–,"CC(c1ccc(C(C)(F)F)cc1F)n1nc(CF)c2c(=O)[nH]c(N(C)C)nc21 (single isomer, unassigned) [Example 209, (S)- or (R)-1-(1-(4-(1,1-Difluoroethyl)-2-fluorophenyl)ethyl)-6-(dimethylamino)-3-(fluoromethyl)-1H-pyrazolo[3,4-d]pyrimidin-4(5H)-one]"
0.14 nM,0.13 nM,–,–,"CC(c1ccc(C(F)(F)F)cc1F)n1nc(CF)c2c(=O)[nH]c(N(C)C)nc21 (single isomer, unassigned) [Example 186, (R)- or (S)-6-(Dimethylamino)-1-(1-(2-fluoro-4-(trifluoromethyl)phenyl)ethyl)-3-(fluoromethyl)-1H-pyrazolo[3,4-d]pyrimidin-4(5H)-one]"
0.14 nM,0.11 nM,–,–,"CC(C)c1ccc(C(C(C)C)n2nc(CO)c3c(=O)[nH]c(N(C)C)nc32)cc1 (single isomer, unassigned) [Example 78, (R)- or (S)-6-(Dimethylamino)-3-(hydroxymethyl)-1-(1-(4-isopropylphenyl)-2-methylpropyl)-1H-pyrazolo[3,4-d]pyrimidin-4(5H)-one]"
0.12 nM,0.12 nM,–,–,"CC(c1ccc(C(C)(F)F)c(F)c1)n1nc(CO)c2c(=O)[nH]c(N(C)C)nc21 (single isomer, unassigned) [Example 107, (S)- or (R)-1-(1-(4-(1,1-Difluoroethyl)-3-fluorophenyl)ethyl)-6-(dimethylamino)-3-(hydroxymethyl)-1H-pyrazolo[3,4-d]pyrimidin-4(5H)-one]"
0.11 nM,0.09 nM,–,–,"CCC(c1ccc(CC(F)(F)F)c(F)c1)n1nc(CO)c2c(=O)[nH]c(N(C)C)nc21 (single isomer, unassigned) [Example 97, (S)- or (R)-6-(Dimethylamino)-1-(1-(3-fluoro-4-(2,2,2-trifluoroethyl)phenyl)propyl)-3-(hydroxymethyl)-1H-pyrazolo[3,4-d]pyrimidin-4(5H)-one]"
0.067 nM,0.046 nM,–,–,"CC(C)C(c1ccc(C(F)(F)F)c(F)c1)n1nc(CF)c2c(=O)[nH]c(N(C)C)nc21 (single isomer, unassigned) [Example 221, (S)- or (R)-6-Dimethylamino)-1-(1-(3-fluoro-4-trifluoromethyl)phenyl)-2-methylpropyl)-3-(fluoromethyl)-1H-pyrazolo[3,4-d]pyrimidin-4(5H)-one]"
0.059 nM,0.04 nM,–,–,"CC(C)C(c1ccc(C(F)(F)F)cc1F)n1nc(CO)c2c(=O)[nH]c(N(C)C)nc21 (single isomer, unassigned) [Example 132, (R)- or (S)-6-(Dimethylamino)-1-(1-(2-fluoro-4-(trifluoromethyl)phenyl)-2-methylpropyl)-3-(hydroxymethyl)-1H-pyrazolo[3,4-d]pyrimidin-4(5H)-one]"
0.036 nM,0.024 nM,–,–,"CC(C)C(c1ccc(C(C)(F)F)cc1F)n1nc(CO)c2c(=O)[nH]c(N(C)C)nc21 (single isomer, unassigned) [Example 119, (S)- or (R)-(1-(4-(1,1-Difluoroethyl)-2-fluorophenyl)-2-methylpropyl)-6-(dimethylamino)-3-(hydroxymethyl)-1H-pyrazolo[3,4-d]pyrimidin-4(5H)-one]"
0.027 nM,0.016 nM,–,–,"CCC(c1ccc(C(C)(F)F)c(F)c1)n1nc(CF)c2c(=O)[nH]c(N(C)C)nc21 (single isomer, unassigned) [Example 217, (S)- or (R)-1-(1-(4-(1,1-Difluoroethyl)-3-fluorophenyl)propyl)-6-(dimethylamino)-3-(fluoromethyl)-1H-pyrazolo[3,4-d]pyrimidin-4(5H)-one]"
